Assay results reported in ChEMBL document CHEMBL3734710 (Eur J Med Chem, 2015).

Tests used:
in vivo [1] = settings: rat, iv, 5 mg/kg
in vivo [2] = settings: rat, po, 10 mg/kg
in vivo [3] = settings: rat, iv, 5 mg/kg; remark: listed apart in the source
in vivo [4] = settings: rat, po, 10 mg/kg; remark: listed apart in the source
in vivo [5] = settings: rat, po, 10 mg/kg; remark: listed apart in the source
in vivo [6] = settings: rat, iv, 5 mg/kg; remark: listed apart in the source
in vivo [7] = settings: rat, po, 10 mg/kg; remark: listed apart in the source
in vivo [8] = settings: rat, iv
in vivo [9] = settings: rat, iv; remark: listed apart in the source
in vivo [10] = settings: rat, iv; remark: listed apart in the source

| Vd (in vivo [1]) [L/kg] | Cmax (in vivo [2]) [ng/mL] | half-life (in vivo [3]) [h] | Tmax (in vivo [4]) [h] | AUC(0-inf) (in vivo [5]) [ng·h/mL] | clearance (in vivo [6]) [mL/min/kg] | bioavailability (in vivo [7]) [%] | clearance (in vivo [8]) [mL/min/kg] | Vd (in vivo [9]) [L/kg] | half-life (in vivo [10]) [h] | Compound |
| --- | --- | --- | --- | --- | --- | --- | --- | --- | --- | --- |
| 17.4 | 351 | 15.8 | 4.5 | 7290 | 14.2 | 67.1 | – | – | – | CC1(C)c2cc(C3CCN(CC4CCOCC4)CC3)ccc2C(=O)c2c1[nH]c1cc(C#N)ccc21 |
| 12.9 | 192 | 5.41 | 3.3 | 1940 | 38 | 42.4 | – | – | – | CC1(C)c2cc(C3CCN(CC4(O)CCOCC4)CC3)ccc2C(=O)c2c1[nH]c1cc(C#N)ccc21 |
| – | 218 | – | 3.3 | 1350 | – | 7.1 | 10.8 | 1.17 | 3.77 | CCc1cc2c(cc1-c1cnn(CC(=O)N(C)C)c1)C(C)(C)c1[nH]c3cc(C#N)ccc3c1C2=O |
